Test results: US20140271930A1, “NONINVASIVE METHOD FOR MEASURING METABOLITES FOR SKIN HEALTH” (priority 2013, published 2014)
Marks after values point to notes of the source that are not given here. Peptide text beside a SMILES is read from it.

Tested on: scalp of dandruff and non-dandruff subjects
Test: Metabolite expression profiling (LC/MS/MS, GC/MS/MS) of scalp D-Squame tape strip extracts: non-dandruff, dandruff baseline, dandruff after 3 weeks anti-dandruff shampoo
Type: in vivo, human
Conditions: for Fold Change Wk 3 Sel vs Dandruff Baseline / Fold Change Wk 3 ZPT vs Dandruff Baseline / Fold Change Wk 3 ZPT vs Non-Dan Baseline / Fold Change Wk 3 Sel vs Non-Dan Baseline: metabolite level in scalp tape strips; for Fold Change Wk 3 Sel vs Dandruff Baseline / Fold Change Wk 3 ZPT vs Dandruff Baseline: standardized to soluble protein; for Fold Change Wk 3 Sel vs Dandruff Baseline: dandruff subjects after 3 weeks 1% selenium sulfide shampoo vs own baseline; for Fold Change Wk 3 ZPT vs Dandruff Baseline: dandruff subjects after 3 weeks 1% zinc pyrithione shampoo vs own baseline; for Fold Change Wk 3 ZPT vs Non-Dan Baseline: dandruff subjects after 3 weeks 1% ZPT shampoo vs non-dandruff subjects; for Fold Change Wk 3 Sel vs Non-Dan Baseline: dandruff subjects after 3 weeks 1% selenium sulfide shampoo vs non-dandruff subjects; for reduction / decrease of metabolite level vs dandruff baseline: after three weeks ZPT shampoo; for decrease of metabolite level vs dandruff baseline: after three weeks selenium sulfide shampoo
Source text: In an embodiment, the use of an adhesive device can be used to achieve such sampling. In preparation for such a sampling study for a dandruff sampling, at a baseline visit, a qualified screening grader will complete adherent scalp flaking score (ASFS) grading for each subject and the highest flaking octant will be identified for tape strip sampling. The highest flaking octant will be sampled at baseline and at various time points during and after treatment with product. Tape strips samples will be collected from each subject at each time point (e.g., baseline and week 3).
The tape strip sampling procedure is repeated additional times, as needed, at the same site placing each D-Squame® tape disc on top of the prior sampled area. The D-Squame® tapes after sample collection are placed into the appropriately labeled wells in a labeled plate.
Following the sampling, an extraction and quantitation procedure is conducted. In an embodiment of the present invention, quantitation of small molecules from extracts of D-Squame® Tape Samples can be conducted via analysis by either LC/MS/MS or GC/MS/MS. In this embodiment of the present invention, the sample extraction in preparation for Metabolite expression profiling technology was performed.
The D-Squame® tape sample plates are removed from −80° C. freezer where they are stored following sample collection, and placed on dry ice. The tape strips are inserted into pre-labeled polypropylene collection tubes, adhesive side facing inward. Extraction buffer containing methanol and water is added to each collection tube and then extracted on ice using sonication for 15 min. If necessary, additional tapes are placed in the collection tube containing the extract solution and the extraction process is repeated as a means of concentrating the sample. Each extract solution is isolated from the tape strip and an aliquot of each sample is placed into a pre-labeled polypropylene collection tubes and frozen at −80° C. for metabolite expression profiling analysis. A separate aliquot is specified for soluble protein analysis using a BCA™ Protein Assay Kit. For this analysis, the aliquot consisting of methanol and water is taken to dryness under a gentle stream of nitrogen. The sample is resuspended in an appropriate aqueous buffer (e.g., PBS/SDS (1× PBS+0.2% SDS) and analyzed for soluble protein.
The extracts are analyzed by GC/MS/MS and LC/MS/MS in positive and negative ion mode. Chromatographic separation followed by full scan mass spectra and MS/MS spectra is carried out to record and quantify all detectable ions present in the samples. Metabolites with known chemical structure can be identified by matching the ions' chromatographic retention index and mass spectra fragmentation signatures with reference library entries created from authentic standard metabolites under the identical analytical procedure as the experimental samples. Welch's Two Sample t-tests and matched-pair t-tests are used to analyze the data. […] The statistical analyses are performed on natural log-transformed data to reduce the effect of any potential outliers in the data. Welch's Two Sample t-test comparisons are made between the means of each biochemical from the various groups listed at the top of the tables and are calculated using either or both of the statistical analysis software programs: Array Studio (Omicsoft, Inc) or “R” from the Free Software Foundation, Inc.
Subjects are evaluated by a qualified grader to establish their scalp status. Dandruff subjects are identified by their level of visible flaking as assessed by a qualified grader. Non-dandruff healthy scalp subjects are evaluated at baseline to establish normalized levels of each biomarker. In this study, there are 60 non-dandruff subjects that are evaluated at baseline. […] They are evaluated at baseline, and after 3 weeks of product usage.

[1] = dandruff subjects after 3 weeks treatment with Sel shampoo, metabolite level in scalp tape strip extract
[2] = dandruff subjects after 3 weeks treatment with ZPT shampoo, metabolite level in scalp tape strip extract
[3] = relative metabolite level in scalp tape strips, dandruff subjects after 3 weeks 1% ZPT shampoo
[4] = relative metabolite level in scalp tape strips, dandruff subjects after 3 weeks 1% selenium sulfide shampoo

| Compound | Mean Values WEEK 3 TRT Sel [1] | Mean Values WEEK 3 TRT ZPT [2] | Fold Change Wk 3 Sel vs Dandruff Baseline | Fold Change Wk 3 ZPT vs Dandruff Baseline | Fold Change Wk 3 ZPT vs Non-Dan Baseline | Fold Change Wk 3 Sel vs Non-Dan Baseline | reduction / decrease of metabolite level vs dandruff baseline | decrease of metabolite level vs dandruff baseline | Mean Values WEEK 3 TRT ZPT [3] | Mean Values WEEK 3 TRT Sel [4] |
| --- | --- | --- | --- | --- | --- | --- | --- | --- | --- | --- |
| CCCCCCCCCCCCCCCCCCCC(=O)O [arachidate (20:0), arachidate] | 0.6154 | 0.7662 | 0.42* fold | 0.55* fold | 0.56*** fold | 0.45*** fold | – | – | – | – |
| CCCCC/C=C\C/C=C\C/C=C\C/C=C\CCCC(=O)O [arachidonate (20:4n6), arachidonate] | – | – | – | – | – | – | 44% | 70% | – | – |
| CCCCCCCCCCCCCCCCCCCCCC(=O)O [behenate (22:0), behenate] | – | – | 0.84 fold | 0.47 fold | 0.34* fold | 0.57*** fold | – | – | – | – |
| O=C(O)/C=C\c1cnc[nH]1 [cis-urocanate] | – | – | 1.22 fold | 1.19 fold | 0.91 fold | 0.99 fold | – | – | – | – |
| CCCCC/C=C\C/C=C\CCCCCCCCCC(=O)O [dihomo-linoleate (20:2n6), dihomo-linoleate] | 0.214 | 0.3984 | 0.15* fold | 0.3* fold | 0.32* fold | 0.17* fold | – | – | – | – |
| CCCCC/C=C\C/C=C\CCCCCCCCCCCC(=O)O [docosadienoate (22:2n6), docosadienoate] | 0.1554 | 0.3022 | 0.12* fold | 0.24* fold | 0.28* fold | 0.14* fold | – | – | – | – |
| CC/C=C\C/C=C\C/C=C\CCCCCCCCCCCC(=O)O [docosatrienoate (22:3n3), docosatrienoate] | 0.2735 | 0.5705 | 0.13* fold | 0.26* fold | 0.32 fold | 0.15* fold | – | – | – | – |
| O=P(O)(O)OCC(O)CO (stereo not shown) [glycerol 3-phosphate (G3P)] | 0.8007 | 0.5943 | – | – | – | – | – | – | – | – |
| O=C(O)CCc1cnc[nH]1 [imidazole propionate] | – | – | – | – | – | – | – | – | 0.8095 | 0.7836 |
| CC(C)CCCCCCCCCCCCC(=O)O [isopalmitic acid] | 0.3034 | 0.5169 | 0.23* fold | 0.41* fold | 0.41* fold | 0.24* fold | – | – | – | – |
| CCCCC/C=C\C/C=C\CCCCCCCC(=O)O [linoleate (18:2n6), linoleate] | – | – | – | – | – | – | 82% | 78% | – | – |
| CCCCCCCCCCCCCCCCC(=O)O [margarate (17:0), margarate] | 0.3903 | 0.6953 | 0.31* fold | 0.6*** fold | 0.45* fold | 0.25* fold | – | – | – | – |
| CCCCCCCCCCCCCCCCCCC(=O)O [nonadecanoate (19:0), nonadecanoate] | 0.3608 | 0.5421 | 0.29* fold | 0.47* fold | 0.39* fold | 0.26* fold | – | – | – | – |
| CCCCCCCC/C=C\CCCCCCCC(=O)NCCO [oleic ethanolamide] | 1.1213 | 1.5447 | – | – | – | – | – | – | – | – |
| CCCCCCCCCCCCCCC(=O)O [pentadecanoate (15:0), pentadecanoate] | 0.3057 | 0.5867 | 0.19* fold | 0.4* fold | 0.37* fold | 0.19* fold | – | – | – | – |
| CC[C@H](C)[C@H](NC(=O)[C@@H](N)CO)C(=O)O [serylisoleucine*] (H-Ser-Ile-OH) | 1.1161 | 0.9496 | – | – | – | – | – | – | – | – |
| O=C(O)/C=C/c1cnc[nH]1 [trans-urocanate] | – | – | 0.74* fold | 0.87 fold | 1.41 fold | 1.21 fold | – | – | 1.0096 | 0.8661 |
| Eicosenoate [Eicosenoate (20:1n9 or 11)] | 0.202 | 0.3561 | – | – | – | – | – | – | – | – |
| dimethylarginine (SDMA + ADMA) | 0.8338 | 1.0243 | – | – | – | – | – | – | – | – |
| linolenate [alpha or gamma; (18:3n3 or 6)] | – | 0.8941 | – | – | – | – | – | – | – | – |
